In patent publication US20020160008A1, “TREATMENT OF DIABETES” (priority 1994, published 2002):
“Also recorded” adds a separate entry of the source.

Experiments:
[1] = Sustacal meal preceded by subcutaneous GLIP injection in Type I diabetic subjects (Example 5); format: in vivo, human; conditions: Type I diabetics, 100 μg GLIP subcutaneously before Sustacal meal
Source text: 7 Type I diabetic subjects were studied.

[2] = 50 μg GLIP plus 5 units insulin (half the usual dose) subcutaneously before Sustacal meal; one subject; FIG. 6 Panel A
Source text: One Type 1 diabetic subject was given GLIP along with insulin and the effects on post-prandial glycaemia observed. […] Blood levels of GLIP were monitored by a standard radioimmunoassay method.

[3] = Sustacal meal with intravenous GLIP infusion 1.2 pm/kg/min in remission phase Type I diabetes (Example 1); format: in vivo, human; conditions: IV GLIP 1.2 pm/kg/min for 120 min after Sustacal meal
Experimental: 7 subjects with remission phase Type I diabetes were studied after ingestion of a standardised meal of Sustacal (Upjohn) (delivering […]). Subjects continued their normal insulin treatment programme on the day prior to the test and, on the day of the test, omitted their morning insulin injection and arrived fasting at 8:00 am. […] Infusion was continued for 120 minutes. Blood levels of glucose, C-peptide, gastrin, glucagon and HPP were monitored by standard radioimmunoassay methods in samples taken before and at intervals during the study, up to 180 minutes. On another test day, subjects were given the Sustacal meal alone and the same analytes were similarly monitored.

[4] = Sustacal meal with GLIP infusion 0.75 pm/kg/min in remission phase Type I diabetes (Example 3); format: in vivo, human; conditions: GLIP 0.75 pmol/kg/min for 120 min with Sustacal meal, versus saline infusion; FIG. 3
Experimental: The test was conducted as described in Example 1 and blood glucose and C-peptide levels were measured. On a further test day, the subjects were studied during saline infusion after a similar Sustacal meal.

[5] = Sustacal meal preceded by subcutaneous GLIP injection in normal volunteers (Example 4); format: in vivo, human; conditions: for delay in increase in blood levels of glucose, HPP, C-peptide and insulin: compared with the first dose
Experimental: 7 normal volunteers were studied after ingestion of a Sustacal meal either alone or immediately preceded by a subcutaneous injection of 1.00 μg GLIP.

[6] = Intravenous glucose infusion with intravenous GLIP in remission phase Type I diabetes (Example 2); format: in vivo, human; conditions: IV GLIP 1.2 pm/kg/min for 60 min with IV glucose 20 g over 60 min, FIG. 2
Experimental: Four subjects with remission phase Type I diabetes were studied during intravenous glucose infusion. Subjects prepared for the tests as described in Example 1, but received an intravenous infusion of glucose (20 g over 60 min. constant rate)instead of the Sustacal meal. […] Blood levels of glucose and C-peptide were monitored as in Example 1.

With “Glucagon-like peptide 1(7-36)amide [GLIP]” the “blood glucose levels compared to control” value ([1]; no morning insulin, FIG. 5 Panel A) was “lowering of blood glucose levels”, the “pancreatic polypeptide (HPP) levels” value ([1]; FIG. 5 Panel D) was “delayed rise in pancreatic polypeptide (HPP) levels” and the “insulin secretion (C-peptide, insulin)” value ([1]; FIG. 5 Panels B and C) was “no enhancement of insulin secretion over control levels”. The “blood glucose after standard meal (maximum)” value [2] was ≤ 8 mM, the “blood levels of C-peptide” value [3] was “prevented a significant increase in blood levels of C-peptide” and the “plasma glucagon levels stimulated by the meal” value [3] was “prevented the mean rise in plasma glucagon levels”. The “control of blood glucose level after a meal” value ([3]; FIG. 1 Panel A) was “excellent control of blood glucose level”, the “pancreatic polypeptide (PP) response to meal” value ([3]; FIG. 1 Panel C) was “this response was absent during GLIP infusion” and the “gastrin response / gastrin levels” value ([3]; FIG. 1 Panel E) was “normal gastrin response; also recorded: not significantly affected”. For the same substance, the C-peptide after meal [4] was “rise in C-peptide was similar to the control experiment”, the “blood glucose after meal” value [4] was “increase in glucose was less than in the control experiment” and the “delay in increase in blood levels of glucose, HPP, C-peptide and insulin” value ([5]; 50 μg GLIP) was “proportionally shorter”. The “delay in increase in blood levels of glucose, HPP, C-peptide and insulin” value ([5]; 200 μg GLIP) was “longer delays”, the “increase in blood levels of glucose, HPP, C-peptide and insulin” value ([5]; subcutaneous GLIP (1.00 μg as printed elsewhere in the source) before Sustacal meal, FIG. 4) was “A delay in increase” and the “control of blood glucose level” value [6] was “improved control of blood glucose level”. For the same substance, the “secretion of endogenous insulin” value [6] was “stimulated secretion of endogenous insulin”.
